Tests used:
[1] = tested on: HepG2; assay: MTS cytotoxicity assay, HepG2 cells; type: cell-based; settings: HepG2, 72 h
Description: For CellTiter 96® Aqueous One Solution Cell Proliferation Assay (MTS) (Promega, Madison, WI, USA), cells were seeded at 5 × 10^3 per well in 96-well plates in quadruplicate together a control with no cells to evaluate the background. After 24 h, the culture medium was removed, and fresh medium containing increasing concentrations of chemical compounds was added to cells. The fixed final concentrations were 0.1 μM, 1 μM, 10 μM, and 100 μM. DMSO was the vehicle used for dilution of the compounds, and its final concentration on cells was less than 0.2%. Medium-only containing wells were included as controls. […] After 3 h at 37 °C in a humidified, 5% CO2 atmosphere, the absorbance at 492 nm was recorded using an EZREAD400 (Biochrom, Cambridge, United Kingdom) plate reader. The average 490 nm absorbance from the “no cell” control wells was subtracted from all other values to yield background-corrected absorbance. Dose–response curves and CC50 values have been calculated by plotting the absorbance data as a function of inhibitor concentrations and fitting the data by least-squares nonlinear regression, according to the method of Marquardt–Levenberg, with the computer program GraphPad Prism 6.0.
Cells were incubated with a scalar concentration of DDX3X inhibitors, and after 72 h of treatment, cell viability was assessed by cytotoxicity assay. […]

[2] = tested on: β-catenin; assay: β-catenin expression by Western blot and immunofluorescence; type: cell-based; settings: U87 and U251 cells, 48 h
Description: Cells were incubated for 15 min in lysis buffer containing 1% triton, 0.1% SDS, 2 mmol/L CaCl2, 10 mg/mL orthovanadate, and 1× protease inhibitors cocktail (Sigma-Aldrich, St. Louis, MO, USA). Forty micrograms of proteins were electrophoresed in 12% SDS-polyacrylamide gel, and then, the gel was placed onto a Trans-Blot Turbo mini nitrocellulose transfer pack and transferred using a Trans-Blot Turbo Transfer System (Bio-Rad Laboratories, Hercules, CA, USA). The membrane was incubated with […] primary antibody and then with […] horseradish peroxidase (HRP)-conjugated secondary antibodies (Santa Cruz Biotechnology, Dallas, TX, USA). […]
Cells grown on coverslips (2 × 10^4 cells/cm^2) were fixed in 4% w/v paraformaldehyde in PBS for 10 min at RT and permeabilized in PBS containing 0.1% v/v Triton X-100 for 5 min at RT. […] After extensive washings, cells were mounted with ProLong Gold antifade mounting medium (Life Technologies Corporation, Carlsbad, CA, USA) and observed by a fluorescence microscope equipped with a digital camera (AXIOPHOT, Carl Zeiss, Oberkochen, Germany).
To better characterize the antiproliferative effect of BA103, we performed further biological evaluation using GBM cell lines. The expression of DDX3X was evaluated in U87 and U251 cell lines by Western blot analysis in comparison with HepG2 cells, resulting in basally detectable mainly in U87 cells (Figure 6A). […]

CCCCc1cn(-c2ccc(NC(=O)Nc3ccccc3C(F)(F)F)cc2)nn1 [BA103, 1-(4-(4-Butyl-1H-1,2,3-triazol-1-yl)phenyl)-3-(2-(trifluoromethyl)phenyl)urea]
CC50 [1]: low micromolar range | expression of β-catenin [2]: reduction in the expression of β-catenin

Source: article PMC8582824, “Targeting DDX3X Helicase Activity with BA103 Shows Promising Therapeutic Effects in Preclinical Glioblastoma Models” (Cancers, 2021)
